From PMC6720511, “Synthesis and biological evaluation of novel N-(piperazin-1-yl)alkyl-1H-dibenzo[a,c]carbazole derivatives of dehydroabietic acid as potential MEK inhibitors” (Journal of Enzyme Inhibition and Medicinal Chemistry, 2019)
One block for each compound: values may come before it. Peptide text beside a SMILES is read from it. * marks the point of attachment. Cbz = O=C(OCc1ccccc1)*; CH2F = FC*

Experiments:
[1] = tested on: Hep3B; test: MTT cytotoxic assay; format: cell-based, human; conditions: 48 h, mean value ± SD
Protocol: (§1) Three human hepatocarcinoma cell lines (SMMC-7721, HepG2 and Hep3B) and normal hepatocyte cell line (QSG-7701) were maintained in Dulbecco Modified Eagle Medium (DMEM) containing 4.0 mM L-Glutamine and 4500 mg/l Glucose supplemented with 10% (v/v) foetalbovine serum (FBS) and 100 unites/mL penicillin/streptomycin at 37 °C in humidified atmosphere of 5% CO2 and 95% air.
(§2) The in vitro cytotoxic activities of the carbazole derivatives of DHA were evaluated against three human hepatocarcinoma cell lines (SMMC-7721, HepG2 and Hep3B) and a normal human hepatocyte cell line (QSG-7701) via the MTT colorimetric method. Briefly, SMMC-7721, HepG2, Hep3B and QSG-7701 cells were harvested at log phase of growth and seeded in 96-well plates (100 µL/well at a density of 2 × 10^5 cells/mL). After 24 h incubation at 37 °C and 5% CO2 to allow cell attachment, cultures were exposed to various concentrations of the isolated compounds for 48 h. Finally, MTT solution (2.5 mg/mL in PBS) was added (40 µL/well). Plates were further incubated for 4 h at 37 °C, and the formazan crystals formed were dissolved by adding 150 µL/well of DMSO. Absorption at 570 nm was measured with an ELISA plate reader. […] Doxorubicin was co-assayed as positive control.

[2] = tested on: HepG2; test: MTT cytotoxic assay; format: cell-based, human; conditions: mean value ± SD
Protocol: as §1, §2

[3] = tested on: SMMC-7721; test: MTT cytotoxic assay; format: cell-based, human; conditions: mean value ± SD
Protocol: as §1, §2

[4] = tested on: normal hepatocyte cell line (QSG-7701); test: MTT cytotoxic assay on normal hepatocytes; format: cell-based, human; conditions: mean value ± SD
Protocol: as §1, §2

[5] = target: T1, MEK1 (Homo sapiens, UniProt Q02750); test: In vitro MEK1 inhibition assay (ADP-Glo kinase assay); format: biochemical; conditions: for IC50: recombinant GST-MEK1, GST-ERK2, 10 µM ATP, mean value ± SD, read-out: MEK1 inhibitory activity IC50 value
T1 construct: purchased Carna Biosciences, Japan
Protocol: An in vitro kinase assay of MEK1 was performed using ADP-Glo kinase assay (Promega, Madison, WI, USA) according to the manufacturer’s protocol. […] Reactions were stopped by adding 5 µL of ADP-Glo reagent to each well. After incubating at 22 °C for 40 min, 10 µL of the kinase detection reagent was added and the plates were incubated for another 30 min at 22 °C in the dark. The reaction mixture was analysed by EnSpire (PerkinElmer, Waltham, MA, USA). U0126 was used as the positive control for MEK1 inhibition.

[6] = tested on: HepG2 cells; test: Cell death inhibition assay; format: cell-based, human; conditions: 24 h
Protocol: Figure 6. Compound 10g induced oncosis and apoptosis of HepG2 cells. (a) PD150606 and Z-VAD-FMK partially reversed compound 10g-induced cell death. HepG2 cells were incubated with PD150606, Z-VAD-FMK or Necrostatin-1 at indicated concentration for 24 h alone or in combination with compound 10g at indicated concentration for 24 h. (b) Compound 10g induced the degradation of α-tubulin and β-actin, and activated oncosis marker calpain-1 autolysis from the 80 kDa event to 76 kDa event in western blot analysis. *, p < 0.01; **, p < 0.01; #, p < 0.01; &, p < 0.001. (c) Compound 10g induced the upregulation of apoptotic protein Bax, caspase-3, caspase-9 and plasmic cytochrome c levels, and the downregulation of antiapoptotic protein Bcl-2 level. *, p < 0.001; **, p < 0.01; #, p < 0.01; and p < 0.01.

[7] = tested on: three human hepatocarcinoma cell lines (SMMC-7721, HepG2 and Hep3B); test: MTT cytotoxic assay, statements over the three cancer cell lines; format: cell-based; conditions: for cytotoxic activity against three cancer cell lines (in words): SMMC-7721, HepG2 and Hep3B
Protocol: as §1, §2

[8] = target: T1, MEK1; test: Preliminary screening of in vitro MEK1 inhibitory activity; format: biochemical
[9] = tested on: MEK1/2; set-up: method as in PMID 21245089; conditions: cited from earlier work

T1 sequence (Q02750 whole entry): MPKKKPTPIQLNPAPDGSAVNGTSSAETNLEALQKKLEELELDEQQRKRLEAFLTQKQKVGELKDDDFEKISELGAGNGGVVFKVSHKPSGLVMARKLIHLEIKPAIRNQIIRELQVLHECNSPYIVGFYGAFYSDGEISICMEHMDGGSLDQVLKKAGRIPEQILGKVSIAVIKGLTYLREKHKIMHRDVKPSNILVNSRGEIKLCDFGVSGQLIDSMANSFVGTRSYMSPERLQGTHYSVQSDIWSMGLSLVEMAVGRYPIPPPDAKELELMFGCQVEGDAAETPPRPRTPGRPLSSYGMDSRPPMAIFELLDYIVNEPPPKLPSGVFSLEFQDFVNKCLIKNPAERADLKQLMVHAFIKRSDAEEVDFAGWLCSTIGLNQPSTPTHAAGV

- IC50 [5]: > 20 µM
Compound: CCc1ccc2c(c1)c1c(n2CCN2CCNCC2)-c2cc(C(C)C)ccc2C2(C)CCCC(C)(C(=O)OC)C12 (stereo not shown) [Compound 10c, 2,3,4,4a,9,13c-Hexahydro-12-ethyl-7-isopropyl-1,4a-dimethyl-9–(2-(piperazin-1-yl)ethyl)-1H-dibenzo[a,c]carbazole-1-carboxylic acid methyl ester]
- IC50 ([1]; Homo sapiens, Hep3B): 5.84 ± 0.36 µM
- IC50 ([2]; Homo sapiens, HepG2, 48 h): 7.27 ± 0.51 µM
- IC50 ([3]; Homo sapiens, SMMC-7721, 48 h): 6.56 ± 0.19 µM
- IC50 ([4]; Homo sapiens, QSG7701, 48 h): 22.2 ± 1.81 µM

- IC50 [5]: > 20 µM
Compound: COC(=O)C1(C)CCCC2(C)c3ccc(C(C)C)cc3-c3c(c4cccc(C)c4n3CCN3CCNCC3)C12 (stereo not shown) [Compound 10b, 2,3,4,4a,9,13c-Hexahydro-7-isopropyl-1,4a,10-trimethyl-9–(2-(piperazin-1-yl)ethyl)-1H-dibenzo[a,c]carbazole-1-carboxylic acid methyl ester]
- IC50 ([1]; Homo sapiens, Hep3B): 5.03 ± 0.31 µM
- IC50 ([2]; Homo sapiens, HepG2, 48 h): 6.11 ± 0.38 µM
- IC50 ([3]; Homo sapiens, SMMC-7721, 48 h): 5.52 ± 0.47 µM
- IC50 ([4]; Homo sapiens, QSG7701, 48 h): 21.9 ± 1.72 µM

- IC50 [5]: 1.63 ± 0.12 µM
Compound: CCOc1cccc2c3c(n(CCN4CCNCC4)c12)-c1cc(C(C)C)ccc1C1(C)CCCC(C)(C(=O)OC)C31 (stereo not shown) [Compound 10h, 2,3,4,4a,9,13c-Hexahydro-10-ethoxy-7-isopropyl-1,4a-dimethyl-9–(2-(piperazin-1-yl)ethyl)-1H-dibenzo[a,c]carbazole-1-carboxylic acid methyl ester]
- IC50 ([1]; Homo sapiens, Hep3B): 1.78 ± 0.12 µM
- IC50 ([2]; Homo sapiens, HepG2, 48 h): 4.87 ± 0.48 µM
- IC50 ([3]; Homo sapiens, SMMC-7721, 48 h): 2.21 ± 0.17 µM
- IC50 ([4]; Homo sapiens, QSG7701, 48 h): 18.9 ± 1.09 µM

- IC50 [5]: 0.23 ± 0.03 µM
Compound: COC(=O)C1(C)CCCC2(C)c3ccc(C(C)C)cc3-c3c(c4cccc(OC)c4n3CCN3CCNCC3)C12 (stereo not shown) [Compound 10f, 2,3,4,4a,9,13c-Hexahydro-7-isopropyl-10-methoxy-1,4a-dimethyl-9–(2-(piperazin-1-yl)ethyl)-1H-dibenzo[a,c]carbazole-1-carboxylic acid methyl ester]
- IC50 ([1]; Homo sapiens, Hep3B): 2.23 ± 0.16 µM
- IC50 ([2]; Homo sapiens, HepG2, 48 h): 3.15 ± 0.13 µM
- IC50 ([3]; Homo sapiens, SMMC-7721, 48 h): 2.03 ± 0.15 µM
- IC50 ([4]; Homo sapiens, QSG7701, 48 h): 17.3 ± 0.78 µM

- IC50 [5]: > 20 µM
Compound: COC(=O)C1(C)CCCC2(C)c3ccc(C(C)C)cc3-c3c(c4cc(C(C)C)ccc4n3CCN3CCNCC3)C12 (stereo not shown) [Compound 10d, 2,3,4,4a,9,13c-Hexahydro-7,12-diisopropyl-1,4a-dimethyl-9–(2-(piperazin-1-yl)ethyl)-1H-dibenzo[a,c]carbazole-1-carboxylic acid methyl ester]
- IC50 ([1]; Homo sapiens, Hep3B): 8.85 ± 0.42 µM
- IC50 ([2]; Homo sapiens, HepG2, 48 h): 8.42 ± 0.39 µM
- IC50 ([3]; Homo sapiens, SMMC-7721, 48 h): 10.5 ± 0.48 µM
- IC50 ([4]; Homo sapiens, QSG7701, 48 h): 31 ± 2.39 µM

- IC50 [5]: > 20 µM
Compound: COC(=O)C1(C)CCCC2(C)c3ccc(C(C)C)cc3-c3c(c4cc(F)ccc4n3CCN3CCNCC3)C12 (stereo not shown) [Compound 10i, 2,3,4,4a,9,13c-Hexahydro-12-fluoro-7-isopropyl-1,4a-dimethyl-9–(2-(piperazin-1-yl)ethyl)-1H-dibenzo[a,c]carbazole-1-carboxylic acid methyl ester]
- IC50 ([1]; Homo sapiens, Hep3B): 3.32 ± 0.2 µM
- IC50 ([2]; Homo sapiens, HepG2, 48 h): 3.91 ± 0.34 µM
- IC50 ([3]; Homo sapiens, SMMC-7721, 48 h): 4.32 ± 0.27 µM
- IC50 ([4]; Homo sapiens, QSG7701, 48 h): 23.7 ± 1.53 µM

- IC50 [5]: 1.28 ± 0.06 µM
Compound: COC(=O)C1(C)CCCC2(C)c3ccc(C(C)C)cc3-c3c(c4cc(OC)ccc4n3CCN3CCNCC3)C12 (stereo not shown) [Compound 10e, 2,3,4,4a,9,13c-Hexahydro-7-isopropyl-12-methoxy-1,4a-dimethyl-9–(2-(piperazin-1-yl)ethyl)-1H-dibenzo[a,c]carbazole-1-carboxylic acid methyl ester]
- IC50 ([1]; Homo sapiens, Hep3B): 4.38 ± 0.35 µM
- IC50 ([2]; Homo sapiens, HepG2, 48 h): 3.73 ± 0.19 µM
- IC50 ([3]; Homo sapiens, SMMC-7721, 48 h): 3.02 ± 0.21 µM
- IC50 ([4]; Homo sapiens, QSG7701, 48 h): 15.3 ± 1.13 µM

- IC50 [5]: 6.36 ± 0.51 µM
Compound: COC(=O)C1(C)CCCC2(C)c3ccc(C(C)C)cc3-c3c(c4cc(C)ccc4n3CCN3CCNCC3)C12 (stereo not shown) [Compound 10a, 2,3,4,4a,9,13c-Hexahydro-7-isopropyl-1,4a,12-trimethyl-9–(2-(piperazin-1-yl)ethyl)-1H-dibenzo[a,c]carbazole-1-carboxylic acid methyl ester]
- IC50 ([1]; Homo sapiens, Hep3B): 1.17 ± 0.12 µM
- IC50 ([2]; Homo sapiens, HepG2, 48 h): 3.05 ± 0.37 µM
- IC50 ([3]; Homo sapiens, SMMC-7721, 48 h): 1.73 ± 0.22 µM
- IC50 ([4]; Homo sapiens, QSG7701, 48 h): 16.3 ± 1.56 µM

- IC50 [5]: 5.62 ± 0.48 µM
Compound: COC(=O)C1(C)CCCC2(C)c3ccc(C(C)C)cc3-c3c(c4cc(Cl)ccc4n3CCN3CCNCC3)C12 (stereo not shown) [Compound 10j, 2,3,4,4a,9,13c-Hexahydro-12-chloro-7-isopropyl-1,4a-dimethyl-9–(2-(piperazin-1-yl)ethyl)-1H-dibenzo[a,c]carbazole-1-carboxylic acid methyl ester]
- IC50 ([1]; Homo sapiens, Hep3B): 3.75 ± 0.34 µM
- IC50 ([2]; Homo sapiens, HepG2, 48 h): 2.88 ± 0.23 µM
- IC50 ([3]; Homo sapiens, SMMC-7721, 48 h): 2.49 ± 0.18 µM
- IC50 ([4]; Homo sapiens, QSG7701, 48 h): 12.2 ± 1.01 µM

More lines, now with the values behind:

Compound: COC(=O)C[C@H](NC(=O)[C@H](C)NC(=O)[C@@H](NC(=O)OCc1ccccc1)C(C)C)C(=O)CF [Z-VAD-FMK] (Cbz-Val-Ala-Asp(OMe)-CH2F)
- relative cell viability of HepG2 cells treated with 10g plus inhibitor ([6]; 10g 10 µM in combination with Z-VAD-FMK): 16.53%

Compound: COC(=O)C1(C)CCCC2(C)c3ccc(C(C)C)cc3-c3c(c4ccccc4n3CCN3CCNCC3)C12 (stereo not shown) [Compound 6a, 2,3,4,4a,9,13c-Hexahydro-7-isopropyl-1,4a-dimethyl-9–(2-(piperazin-1-yl)ethyl) -1H-dibenzo[a,c]carbazole-1-carboxylic acid methyl ester]
- IC50 ([7]; Homo sapiens, at least one of SMMC-7721, HepG2, Hep3B, read-out: IC50 against at least one hepatocarcinoma cell line): < 10 µM
- IC50 ([1]; Homo sapiens, Hep3B): 0.82 ± 0.08 µM
- IC50 ([2]; Homo sapiens, HepG2, 48 h): 2.28 ± 0.19 µM
- IC50 ([3]; Homo sapiens, SMMC-7721, 48 h): 5.2 ± 0.21 µM
- IC50 ([4]; Homo sapiens, QSG7701, 48 h): 8.75 ± 0.65 µM
- MEK1 inhibitory activity (in words) [5]: weak MEK1 inhibitory activity
- IC50 [5]: 13.2 ± 0.73 µM
- MEK1 inhibitory activity in preliminary screening (in words) [8]: moderate inhibitory activity

Compound: CC(=O)Nc1cccc(-n2c(=O)n(C3CC3)c(=O)c3c(Nc4ccc(I)cc4F)n(C)c(=O)c(C)c32)c1 [trametinib]
- IC50 [9]: 0.0007 to 0.0009 µM

Compound: O=C(O)/C(S)=C/c1ccc(I)cc1 [PD150606]
- relative cell viability of HepG2 cells treated with 10g plus inhibitor ([6]; 10g 10 µM in combination with PD150606 50 µM): 44.87%

Compound: CN1C(=O)C(Cc2c[nH]c3ccccc23)NC1=S (stereo not shown) [Necrostatin-1]
- effect of inhibitor on cell death caused by compound 10g (in words) ([6]; in combination with 10g): no apparent effect

Compound: CCN1CCN(CCn2c3c(c4ccccc42)C2C(C)(C(=O)OC)CCCC2(C)c2ccc(C(C)C)cc2-3)CC1 (stereo not shown) [Compound 6c, 2,3,4,4a,9,13c-Hexahydro-7-isopropyl-1,4a-dimethyl-9–(2-(4-ethylpiperazin-1-yl)ethyl)-1H-dibenzo[a,c]carbazole-1-carboxylic acid methyl ester]
- cytotoxic activity against three cancer cell lines (in words) [7]: moderate activity
- IC50 ([1]; Homo sapiens, Hep3B): 11 ± 0.65 µM
- IC50 ([2]; Homo sapiens, HepG2, 48 h): 17.4 ± 1.73 µM
- IC50 ([3]; Homo sapiens, SMMC-7721, 48 h): 14 ± 2.1 µM
- IC50 ([4]; Homo sapiens, QSG7701, 48 h): 41.1 ± 3.69 µM

Compound: 2,3,4,4a,9,13c-Hexahydro-7-isopropyl-1,4a-dimethyl-9–(2-(4-formylpiperazin-1-yl)butyl)-1H-dibenzo[a,c]carbazole-1-carboxylic acid methyl ester [Compound 8e]
- cytotoxic activity against three cancer cell lines (in words) [7]: moderate inhibitions
- IC50 [1]: 38 ± 1.75 µM
- IC50 ([2]; 48 h): 41.2 ± 3.56 µM
- IC50 ([3]; 48 h): 32.1 ± 2.78 µM
- IC50 ([4]; 48 h): > 50 µM
